In patent US10745360B2, “Quinoxaline compounds, method for preparing the same and use thereof” (Development Center for Biotechnology, priority 2014, dated 2020):

How the values were obtained:
B-Raf^V600E kinase = biological target: T1, B-Raf^V600E kinase (Homo sapiens, UniProt P15056, V600E); test: B-Raf V600E kinase assay ([33P] incorporation into MEK1 K97R); assay type: biochemical; details: recombinant B-Raf^V600E, 8 μM ATP, 30 min, 30° C.; read-out: IC50 ranking against B-Raf^V600E kinase
T1 construct: purchased Upstate Biotechnology
Experimental: (§1) Inhibition of kinase activity by a test compound disclosed herein was estimated by quantifying the amount of [^33P] incorporation of a substrate in the presence of the test compound. Standard assay conditions were 5 ng of recombinant B-Raf^V600E kinase (Upstate Biotechnology) with 500 ng MEK1 (K97R) in assay buffer (8 μM ATP, 0.5 μCi [^33P]ATP (specific activity 3000 Ci/mmol, PerkinElmer), 50 mM Tris/HCl (pH 7.5), and 1 mM EGTA, 1 mM Na3VO4, 1% 2-mercaptoethanol, 0.1% Brij 35, and 0.2 mg/ml BSA), and the test compound (diluted with 4% DMSO) or DMSO alone (as a control) in a final volume of 25 μL. Reactions were incubated at 30° C. for 30 min and stopped by adding 3% phosphoric acid, harvested onto a 96-well GF/B UniFilter (PerkinElmer) using a unifilter harvester (PerkinElmer), and counted with a TopCount microplate scintillation counter (PerkinElmer). The IC50 values of inhibitors were determined after carrying out assays at 3-fold serially diluted concentrations of each compound in duplication. The results were analyzed using linear regression software (GraphPad Prism 4; GraphPad Software Inc.).

[1] = test system: SK-MEL-2 melanoma cell with wild type B-Raf (B-Raf^wt) and NRAS^Q61R mutation; test: Cell proliferation assay (CELLTITER 96), SK-MEL-2; assay type: cell-based; details: Homo sapiens; SK-MEL-2, 72 hours; given as bound; read-out: Cytotoxicity (IC50 Ranking) SK-MEL-2 (NRAS^Q61R, B-Raf^wt)
Experimental: (§2) Inhibition of cell growth by compounds was measured using CELLTITER 96® assay. The cytotoxicity of compounds was evaluated in B-Raf^V600E mutant A375 melanoma cell, B-Raf^V600E mutant COLO205 colon cancer cell, and SK-MEL-2 melanoma cell with wild type B-Raf (B-Raf^wt) and NRASQ^Q61R mutation. A375 and COLO205 cell line were cultured in DMEM containing 10% FCS and incubated at 37° C. in 5% CO2 atmosphere. SK-MEL-2 cell line was cultured in MEM containing 10% FCS and incubated at 37° C. in 5% CO2 atmosphere. A375, COLO205 and SK-MEL-2 cell were seeded into 96-well plates at 2000, 2000, and 4000 cells/well, respectively, and allowed to adhere for overnight. Then, these seeded cells were treated with increasing concentrations of the test compounds and incubated for another 72 hours. At the end of the incubation, CELLTITER 96® Aqueous One Solution Reagent (Promega) was added and incubated for 4 hours. Cell viability was determined by measuring absorbance at 490 nm using EMAX® microplate reader (Molecular Devices).
(§3) The 50% inhibitory concentration (IC50) value was calculated by plotting the percentage of growth inhibition against the concentration of compound, using GraphPad Prism5 software for curve fitting.

C-Raf kinase = biological target: T2, C-Raf kinase (Homo sapiens, UniProt P04049); test: C-Raf kinase assay ([33P] incorporation into MEK1 K97R); assay type: biochemical; details: recombinant C-Raf, 8 μM ATP, 30 min, 30° C.; read-out: IC50 ranking against C-Raf kinase
T2 construct: purchased Upstate Biotechnology
Experimental: as §1, with “were 2” for “were 5”, “recombinant C-Raf” for “recombinant B-Raf^V600E”, “ng MEK1(K97R)” for “ng MEK1 (K97R)”

B-Raf kinase = biological target: T3, B-Raf kinase (Homo sapiens, UniProt P15056); test: B-Raf kinase assay ([33P] incorporation into MEK1 K97R); assay type: biochemical; details: recombinant B-Raf, 8 μM ATP, 30 min, 30° C.; read-out: IC50 ranking against B-Raf kinase
T3 construct: purchased Upstate Biotechnology
Experimental: Inhibition of kinase activity by a test compound disclosed herein was estimated by quantifying the amount of [^33P] incorporation of a substrate in the presence of the test compound. Standard assay conditions were 5 ng of recombinant B-Raf kinase (Upstate Biotechnology) with 500 ng MEK1(Map-erk kinase; K97R) in the assay buffer (8 μM ATP, 0.5 μCi [^33P]ATP (specific activity 3000 Ci/mmol, PerkinElmer), 50 mM Tris/HCl (pH 7.5), and 1 mM EGTA, 1 mM Na3VO4, 1% 2-mercaptoethanol, 0.1% Brij 35, and 0.2 mg/ml BSA) in a final volume of 25 μL. Reactions were incubated at 30° C. for 30 min and stopped by adding 3% phosphoric acid, harvested onto a 96-well GF/B UniFilter (PerkinElmer) using a unifilter harvester (PerkinElmer), and counted with a TopCount microplate scintillation counter (PerkinElmer). The IC50 values of inhibitors were determined after carrying out assays at 3-fold serially diluted concentrations of each compound in duplication. The results were analyzed using linear regression software (GraphPad Prism 4; GraphPad Software Inc.).

[2] = test system: B-Raf^V600E mutant A375 melanoma cell; test: Cell proliferation assay (CELLTITER 96), A375; assay type: cell-based; details: Homo sapiens, A-375; A375, 72 hours; read-out: Cytotoxicity (IC50 Ranking) A375 (B-Raf^V600E)
Experimental: as §2, §3

[3] = test system: B-Raf^V600E mutant COLO205 colon cancer cell; test: Cell proliferation assay (CELLTITER 96), COLO205; assay type: cell-based; details: Homo sapiens, COLO 205; COLO205, 72 hours; read-out: Cytotoxicity (IC50 Ranking) COLO205 (B-Raf^V600E)
Experimental: as §2, §3

T1 sequence (P15056 whole entry V600E): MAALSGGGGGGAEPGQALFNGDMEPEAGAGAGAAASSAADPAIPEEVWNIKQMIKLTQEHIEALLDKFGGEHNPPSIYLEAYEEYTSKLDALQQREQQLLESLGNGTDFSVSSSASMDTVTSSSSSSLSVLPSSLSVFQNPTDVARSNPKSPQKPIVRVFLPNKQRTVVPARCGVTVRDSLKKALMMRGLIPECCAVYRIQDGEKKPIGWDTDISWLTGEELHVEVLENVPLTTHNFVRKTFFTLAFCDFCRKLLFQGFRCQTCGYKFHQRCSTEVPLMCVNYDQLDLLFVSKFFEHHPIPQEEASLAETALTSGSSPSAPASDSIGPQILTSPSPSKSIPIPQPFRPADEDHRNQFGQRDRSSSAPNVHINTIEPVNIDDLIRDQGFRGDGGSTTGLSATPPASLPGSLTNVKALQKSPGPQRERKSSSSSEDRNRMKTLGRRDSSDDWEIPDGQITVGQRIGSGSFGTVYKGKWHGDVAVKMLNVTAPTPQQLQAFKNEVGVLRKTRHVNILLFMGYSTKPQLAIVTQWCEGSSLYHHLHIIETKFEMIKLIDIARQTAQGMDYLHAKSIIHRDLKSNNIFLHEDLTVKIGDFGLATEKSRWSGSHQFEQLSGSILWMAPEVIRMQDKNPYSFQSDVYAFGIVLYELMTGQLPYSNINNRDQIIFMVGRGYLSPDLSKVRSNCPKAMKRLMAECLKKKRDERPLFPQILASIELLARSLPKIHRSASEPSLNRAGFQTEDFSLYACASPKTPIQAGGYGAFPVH
T2 sequence (P04049 whole entry): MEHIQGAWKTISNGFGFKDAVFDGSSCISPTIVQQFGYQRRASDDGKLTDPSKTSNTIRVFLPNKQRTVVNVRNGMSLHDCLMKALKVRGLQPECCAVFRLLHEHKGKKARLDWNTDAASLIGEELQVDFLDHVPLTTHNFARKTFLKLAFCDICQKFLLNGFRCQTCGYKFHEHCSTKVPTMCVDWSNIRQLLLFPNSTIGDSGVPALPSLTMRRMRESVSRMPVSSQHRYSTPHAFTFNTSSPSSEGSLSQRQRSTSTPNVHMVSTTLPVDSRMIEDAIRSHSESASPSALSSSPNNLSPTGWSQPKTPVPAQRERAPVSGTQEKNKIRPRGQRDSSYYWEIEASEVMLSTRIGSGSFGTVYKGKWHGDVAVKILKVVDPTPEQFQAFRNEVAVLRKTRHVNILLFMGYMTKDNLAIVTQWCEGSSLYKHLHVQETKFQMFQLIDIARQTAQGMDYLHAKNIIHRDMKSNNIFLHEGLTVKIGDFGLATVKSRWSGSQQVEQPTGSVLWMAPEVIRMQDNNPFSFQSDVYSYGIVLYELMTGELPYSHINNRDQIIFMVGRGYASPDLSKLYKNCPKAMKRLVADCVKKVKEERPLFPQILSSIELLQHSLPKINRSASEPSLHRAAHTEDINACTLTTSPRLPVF
T3 sequence (P15056 whole entry): as the sequence (P15056 whole entry V600E) above, with E600V counted along it

IC50 (B-Raf^V600E kinase)	IC50 (C-Raf kinase)	IC50 (B-Raf kinase)	SMILES	IC50 [1]	IC50 [2]	IC50 [3]
300 to 1000 nM	300 to 1000 nM	300 to 1000 nM	COc1cnc2ccc(Nc3c(F)ccc(NS(C)(=O)=O)c3F)c([N+](=O)[O-])c2n1 [compound 14, N-{2,4-difluoro-3-[(3-methoxy-5-nitro-6-quinoxalinyl)amino]phenyl}methanesulfonamide]	> 10000 nM	1000 to 10000 nM	1000 to 10000 nM
< 300 nM	< 300 nM	< 300 nM	CCCS(=O)(=O)Nc1ccc(F)c(Nc2ccc3ncc(O)nc3c2C#N)c1F [compound 15, N1-{3-[(5-cyano-3-hydroxy-6-quinoxalinyl)amino]-2,4-difluorophenyl}-1-propanesulfonamide]	> 10000 nM	300 to 1000 nM	300 to 1000 nM
< 300 nM	< 300 nM	< 300 nM	CCCS(=O)(=O)Nc1ccc(F)c(Nc2ccc3ncc(OCCN4CCOCC4)nc3c2C#N)c1F [compound 16, N1-(3-{[5-cyano-3-(2-morpholinoethoxy)-6-quinoxalinyl]amino)-2,4-difluorophenyl)-1-propanesulfonamide]	> 10000 nM	< 300 nM	< 300 nM
< 300 nM	< 300 nM	< 300 nM	CCCS(=O)(=O)Nc1ccc(F)c(Nc2ccc3ncc(OCC)nc3c2C#N)c1F [compound 17, N-(3-(5-cyano-3-ethoxyquinoxalin-6-ylamino)-2,4-difluorophenyl)propane-1-sulfonamide]	> 10000 nM	< 300 nM	< 300 nM
< 300 nM	< 300 nM	< 300 nM	CCCS(=O)(=O)Nc1ccc(F)c(Nc2ccc3ncc(N(C)C)nc3c2C#N)c1F [compound 18, N-(3-(5-cyano-3-(dimethylamino)quinoxalin-6-ylamino)-2,4-difluorophenyl)propane-1-sulfonamide]	> 10000 nM	< 300 nM	< 300 nM
< 300 nM	< 300 nM	< 300 nM	CCCS(=O)(=O)Nc1ccc(F)c(Nc2ccc3ncc(N4CCOCC4)nc3c2C#N)c1F [compound 19, N-(3-(5-cyano-3-morpholinoquinoxalin-6-ylamino)-2,4-difluorophenyl)propane-1-sulfonamide]	> 10000 nM	< 300 nM	< 300 nM
< 300 nM	< 300 nM	< 300 nM	CCCS(=O)(=O)Nc1ccc(F)c(Nc2ccc3ncc(NC)nc3c2C#N)c1F [compound 20, N-(3-(5-cyano-3-(methylamino)quinoxalin-6-ylamino)-2,4-difluorophenyl)propane-1-sulfonamide]	> 10000 nM	< 300 nM	< 300 nM
< 300 nM	< 300 nM	< 300 nM	CCCS(=O)(=O)Nc1c(F)ccc(Nc2ccc3ncc(OC)nc3c2C#N)c1F [compound 21, N-(3-(5-cyano-3-methoxyquinoxalin-6-ylamino)-2,6-difluorophenyl)propane-1-sulfonamide]	> 10000 nM	< 300 nM	< 300 nM
< 300 nM	< 300 nM	< 300 nM	CCCS(=O)(=O)Nc1cc(Nc2ccc3ncc(OC)nc3c2C#N)ccc1F [compound 22, N-(5-(5-cyano-3-methoxyquinoxalin-6-ylamino)-2-fluorophenyl)propane-1-sulfonamide]	> 10000 nM	< 300 nM	< 300 nM
300 to 1000 nM	1000 to 10000 nM	300 to 1000 nM	CCCS(=O)(=O)Nc1ccc(F)c(Nc2ccc3ncc(N4CCOCC4)nc3c2C#N)c1 [compound 23, N-(3-(5-cyano-3-morpholinoquinoxalin-6-ylamino)-4-fluorophenyl)propane-1-sulfonamide]	> 10000 nM	< 300 nM	< 300 nM
< 300 nM	< 300 nM	< 300 nM	CCOc1cnc2ccc(Nc3cc(NS(=O)(=O)c4ccccc4)ccc3F)c(C#N)c2n1 [compound 24, N-(3-(5-cyano-3-ethoxyquinoxalin-6-ylamino)-4-fluorophenyl)benzenesulfonamide]	> 10000 nM	300 to 1000 nM	< 300 nM
< 300 nM	< 300 nM	< 300 nM	N#Cc1c(Nc2cc(NS(=O)(=O)c3ccccc3)ccc2F)ccc2ncc(N3CCOCC3)nc12 [compound 25, N-(3-(5-cyano-3-morpholinoquinoxalin-6-ylamino)-4-fluorophenyl)benzenesulfonamide]	> 10000 nM	300 to 1000 nM	< 300 nM
1000 to 10000 nM	1000 to 10000 nM	1000 to 10000 nM	CS(=O)(=O)Nc1ccc(F)c(Nc2ccc3ncc(N4CCOCC4)nc3c2C#N)c1 [compound 26, N-(3-(5-cyano-3-morpholinoquinoxalin-6-ylamino)-4-fluorophenyl)methanesulfonamide]	> 10000 nM	1000 to 10000 nM	1000 to 10000 nM
1000 to 10000 nM	1000 to 10000 nM	1000 to 10000 nM	CCOc1cnc2ccc(Nc3cc(NS(C)(=O)=O)ccc3F)c(C#N)c2n1 [compound 27, N-(3-(5-cyano-3-ethoxyquinoxalin-6-ylamino)-4-fluorophenyl)methanesulfonamide]	> 10000 nM	1000 to 10000 nM	300 to 1000 nM
300 to 1000 nM	< 300 nM	300 to 1000 nM	CCCS(=O)(=O)Nc1ccc(F)c(Nc2ccc3ncc(N(C)C)nc3c2C#N)c1 [compound 28, N-(3-(5-cyano-3-(dimethylamino)quinoxalin-6-ylamino)-4-fluorophenyl)propane-1-sulfonamide]	> 10000 nM	300 to 1000 nM	< 300 nM
